The values that follow come from patent US20040266814A1, “Imidazopyridine compounds having 5-HT4 receptor agonistic activity and 5-HT3 receptor antagonistic activity” (Pfizer Inc, priority 2003, published 2004).

Structures can show the parent of a compound that is named as a salt.

For data set [1], the target named is T1, Human 5-HT4(d) transfected HEK293 cells (Homo sapiens, UniProt Q13639).
T1 construct: expressed in transfected cells; host or cells: HEK293
Nature of the data set: Agonist-induced cAMP elevation in human 5-HT4(d) transfected HEK293 cells. The settings on record: for Emax: HEK293, normalized to cAMP produced by 1000 nM serotonin, read-out: cAMP 5HT4 function Emax; for EC50: human 5-HT4(d) transfected HEK293 cells, read-out: cAMP 5HT4 function; for cAMP 5HT4 function, verdict in words: table remark in brackets. The data set is classed as cell-based. How it is done: Agonist-Induced cAMP Elevation in Human 5-HT4(d) Transfected HEK293 Cells
Human 5-HT4(d) transfected HEK293 cells were established in-house. The cells were grown at 37° C. and 5% CO2 in DMEM supplemented with 10% FCS, 20 mM HEPES (pH 7.4), 200 μg/ml hygromycin B (Gibco), 100 units/ml penicillin and 100 μg/ml streptomycin.
The cells were grown to 60-80% confluence. On the previous day before treatment with compounds dialyzed FCS (Gibco) was substituted for normal and the cells were incubated overnight.
Compounds were prepared in 96-well plates (12.5 μl/well). The cells were harvested with PBS/1 mM EDTA, centrifuged and washed with PBS. At the beginning of the assay, cell pellet was resuspended in DMEM supplemented with 20 mM HEPES, 10 μM pargyline (Sigma) and 1 mM 3-isobutyl-1-methylxanthine (Sigma) at the concentration of 1.6×10^5 cells/ml and left for 15 minutes at room temperature. The reaction was initiated by addition of the cells into plates (12.5 μl/well). After incubation for 15 minutes at room temperature, 1% Triton X-100 was added to stop the reaction (25 μl/well) and the plates were left for 30 minutes at room temperature. Homogenous time-resolved fluorescence-based cAMP (Schering) detection was made according to the manufacturer's instruction. ARVOsx multilabel counter (Wallac) was used to measure HTRF (excitation 320 nm, emission 665 nm/620 nm, delay time 50 μs, window time 400 μs).
Data was analyzed based on the ratio of fluorescence intensity of each well at 620 nm and 665 nm followed by cAMP quantification using cAMP standard curve. Enhancement of cAMP production elicited by each compound was normalized to the amount of cAMP produced by 1000 nM serotonin (Sigma).

In the next data set the target is T2, Human 5-HT4(d) (Homo sapiens, UniProt Q13639).
T2 construct: expressed in transfected cells; host or cells: HEK293
Nature of the data set: Human 5-HT4 binding ([3H]-GR113808, SPA). The settings on record: human 5-HT4(d) HEK293 membranes, read-out: h5HT4 Ki. How it is done:
Human S-HT4(d) transfected HEK293 cells were prepared and grown in-house. The collected cells were suspended in 50 mM HEPES (pH 7.4 at 4° C.) supplemented with protease inhibitor cocktail (Boehringer, 1:1000 dilution) and homogenized using a hand held Polytron PT 1200 disruptor set at full power for 30 sec on ice. The homogenates were centrifuged at 40,000×g at 4° C. for 30 min. The pellets were then resuspended in 50 mM HEPES (pH 7.4 at 4° C.) and centrifuged once more in the same manner. The final pellets were resuspended in an appropriate volume of 50 mM HEPES (pH 7.4 at 25° C.), homogenized, aliquoted and stored at −80° C. until use. An aliquot of membrane fractions was used for protein concentration determination using BCA protein assay kit (PIERCE) and ARVOsx plate reader (Wallac).
For the binding experiments, 25 μl of test compounds were incubated with 25 μl of [^3H]-GR113808 (Amersham, final 0.2 nM) and 150 μl of membrane homogenate and WGA-SPA beads (Amersham) suspension solutions (10 μg protein and 1 mg SPA beads/well) for 60 minutes at room temperature. Nonspecific binding was determined by 1 μM GR113808 (Tocris) at the final concentration. Incubation was terminated by centrifugation at 1000 rpm. Receptor-bound radioactivity was quantified by counting with MicroBeta plate counter (Wallac).

Another data set deals with T3, rat 5-HT3 receptors (Rattus norvegicus, UniProt P35563).
T3 construct: Cerebral cortical tissues were removed from male Sprague-Dawley (SD) rats; from tissue; host or cells: cerebral cortex of male Sprague-Dawley rats (membranes)
T3 sequence (P35563 24-483): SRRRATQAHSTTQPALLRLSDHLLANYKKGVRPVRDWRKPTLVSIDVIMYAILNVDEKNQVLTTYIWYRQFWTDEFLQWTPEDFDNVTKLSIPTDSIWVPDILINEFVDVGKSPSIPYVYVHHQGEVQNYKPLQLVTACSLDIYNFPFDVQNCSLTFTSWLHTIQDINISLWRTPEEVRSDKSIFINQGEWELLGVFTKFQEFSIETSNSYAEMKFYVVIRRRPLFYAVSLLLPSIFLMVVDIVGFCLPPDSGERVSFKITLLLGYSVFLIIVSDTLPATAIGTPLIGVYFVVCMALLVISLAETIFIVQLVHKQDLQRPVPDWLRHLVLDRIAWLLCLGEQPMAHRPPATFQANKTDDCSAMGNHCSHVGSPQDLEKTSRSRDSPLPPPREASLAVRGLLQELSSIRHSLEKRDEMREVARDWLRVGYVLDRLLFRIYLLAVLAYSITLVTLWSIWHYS
Nature of the data set: Rat 5-HT3 receptor binding ([3H]-BRL 43694, rat cortical membranes). The conditions noted are these: read-out: r5HT3 Binding Ki. How it is done:
Cerebral cortical tissues were removed from male Sprague-Dawley (SD) rats (Japan SLC), weighed and placed in 10 volumes of 50 mM ice-cold Tris-HCl (pH 7.5). This was homogenized in a Polytron homogenizer (30 sec at full speed) and subsequently centrifuged at 48,000 g and 4° C. for 15 min. The resulting pellet was resuspended in 50 mM ice-cold Tris-HCl, homegenized and centrifuged again in the same way. The final pellet was resuspended in an appropriate volume of 50 mM Tris-HCl, dispensed into aliquots and stored at −80° C. until use.
The protein concentrations of homogenates were determined by Bradford method or BCA protein method (Pierce) with BSA as a standard.
Affinity of compounds for pig or bovine 5-HT4 and rat 5-HT3 receptors were assessed with using radiolabeled specific ligands, GR 113808 ({1-[2-(methylsulfonyl)ethyl]-4-piperidinyl} [methyl-^3H]-1H-indole-3-carboxylate) and BRL 43694 (1-Methyl-N-(9-[methyl-^3H]-9-azabicyclo [3.3.1]non-3-yl)-1H-indazole-3-caboxamide). Compounds were incubated with 25-100 pM of [^3H]-GR 113808 (Amersham) and 0.6-1 mg protein of pig or bovine striatal membranes suspended in a final volume of 0.8-1 ml of 50 mM Tris-HCl (pH 7.5). Nonspecific binding was determined with 10-50 μM 5-HT. The binding of 0.3 nM [^3H]-BRL 43694 (NEN) was measured using 400 μg protein of rat cortical membranes suspended in a final volume of 500 μl of 50 mM Tris-HCl (pH 7.5)., Nonspecific binding was determined with 10 μM 5-HT.
The plates were incubated at room temperature on a plate shaker for 30 min. The assays were stopped by rapid filtration using a Brandell cell harvester through Wallac-B filters pre-soaked in 0.2% poly(ethylenimine) at 4° C. for 60-90 min. The filters were washed three times with 1 ml of ice-cold 50 mM HEPES, and were dried in a microwave or at room temperature. They were bagged and heated with meltilex scintillant (Wallac) or soaked in BetaplateScint (Wallac). Receptor-bound radioactivity was quantified using Big-spot counter, Betaplate counter (Wallac) or LS counter (Packard).

Another data set addresses T4, 5-HT3 (Cavia porcellus, UniProt O70212).
T4 construct: 5-HT3 antagonist assay in guinea-pig longitudinal muscle-myenteric plexus (LMMP); from tissue; host or cells: guinea-pig longitudinal muscle-myenteric plexus (LMMP)
T4 sequence (O70212 20-490): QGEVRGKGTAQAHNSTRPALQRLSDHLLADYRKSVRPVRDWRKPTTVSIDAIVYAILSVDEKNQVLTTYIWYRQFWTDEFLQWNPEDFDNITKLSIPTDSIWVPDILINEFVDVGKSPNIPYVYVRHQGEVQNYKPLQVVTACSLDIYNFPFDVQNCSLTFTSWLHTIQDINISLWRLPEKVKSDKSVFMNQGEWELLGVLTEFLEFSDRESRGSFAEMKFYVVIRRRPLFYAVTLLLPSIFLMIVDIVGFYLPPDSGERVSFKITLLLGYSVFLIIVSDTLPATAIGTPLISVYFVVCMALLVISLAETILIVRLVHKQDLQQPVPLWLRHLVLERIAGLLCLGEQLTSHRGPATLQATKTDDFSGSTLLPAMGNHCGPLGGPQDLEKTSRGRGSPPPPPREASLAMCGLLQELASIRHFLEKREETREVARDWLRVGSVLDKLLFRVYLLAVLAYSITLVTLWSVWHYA
The data set can be described thus: 5-HT3 antagonist assay in guinea-pig longitudinal muscle-myenteric plexus (LMMP). The procedure: 5-HT3 Functional Assay Method
5-HT3 antagonist assay in guinea-pig longitudinal muscle-myenteric plexus (LMMP): The LMMP tissues were prepared according to the method of A. Butler et al. (Br. J. Pharmacology, 101: 591-598, 1990) and their 5-HT4 receptors were desensitized by performing in 10 μM of 5-methoxytryptamine-containing Krebs solution. Non-cumulative concentration-effect curves (CECs) to 5-HT were constructed across the range […] in half-log unit increments. After 60-minute-equilibration with antagonists, 2nd CECs to 5-HT were constructed until 1 mM.

T1 sequence (Q13639 1-360 isoform Q13639-3): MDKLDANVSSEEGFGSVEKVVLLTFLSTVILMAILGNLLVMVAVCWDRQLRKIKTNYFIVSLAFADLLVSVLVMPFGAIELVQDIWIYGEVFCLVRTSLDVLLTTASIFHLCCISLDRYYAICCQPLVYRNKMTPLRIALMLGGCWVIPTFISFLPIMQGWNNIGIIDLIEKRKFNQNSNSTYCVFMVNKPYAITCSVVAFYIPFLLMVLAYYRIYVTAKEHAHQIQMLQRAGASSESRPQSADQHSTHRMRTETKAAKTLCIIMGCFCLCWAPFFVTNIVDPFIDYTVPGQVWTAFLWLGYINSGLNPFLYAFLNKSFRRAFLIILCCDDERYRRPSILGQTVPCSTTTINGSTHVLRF
T2 sequence (Q13639 1-360 isoform Q13639-3): as above

As usually defined, the Emax is the maximal effect, on the per cent scale that the assay sets. For orientation: Ki means the equilibrium dissociation constant of an inhibitor or competing ligand from its target. With `Cc1cn2c(N)c(Cl)cc(C(=O)NCC3CCNCC3)c2n1` [Example 1, 5-AMINO-6-CHLORO-2-METHYL-N-(PIPERIDIN-4-YLMETHYL)-IMIDAZO[1,2-a]PYRIDINE-8-CARBOXAMIDE], in data set [1], the Emax turned out to be 88% and the EC50 was 13.6 nM. The Ki at Human 5-HT4(d) turned out to be 58 nM. In addition, the inhibition constant (Ki) at rat 5-HT3 receptors stood at 26 nM.

For the compound `O=C(NC1CN2CCC1CC2)c1cc(Cl)cn2ccnc12` (centres unmarked) [C], in data set [1], the “5HT4 receptor agonistic activity” value is “inactive”; the Emax is 11%; the EC50 was 2660 nM; the “cAMP 5HT4 function, verdict in words” value is “inactive”. Further, at rat 5-HT3 receptors, the inhibition constant (Ki) is 6 nM.

The melting point is the temperature of the solid-liquid transition. For `CCc1cn2c(N)c(Cl)cc(C(=O)NCC3CCNCC3)c2n1` [Example 2, 5-AMINO-6-CHLORO-2-ETHYL-N-(PIPERIDIN-4-YLMETHYL)IMIDAZO[1,2-a]PYRIDINE-8-CARBOXAMIDE], the melting point amounted to 153 °C. Further, the “LMMP 5HT3 function pA” value on 5-HT3 (antagonism of 5-HT) amounted to 6.6. Also, on 5-HT3 (read-out: pA2 (5HT3 antagonistic functional activity) (converted)), the Kb is 251 nM. Further, in data set [1], the maximum response (Emax) is 58% and the EC50 turned out to be 40 nM. Moreover, at Human 5-HT4(d), the Ki was found to be 109 nM. In addition, the inhibition constant Ki on rat 5-HT3 receptors was 48 nM.

With `Cc1cn2c(N)c(Cl)cc(C(=O)NCC3CCNCC3)c2n1` (as salt: hydrochloride) [Example 1, 5-AMINO-6-CHLORO-2-METHYL-N-(PIPERIDIN-4-YLMETHYL)-IMIDAZO[1,2-a]PYRIDINE-8-CARBOXAMIDE], the melting point was 237 °C.

For the compound `CN(C)C1(CCNC(=O)c2cc(Cl)cn3ccnc23)CCCCC1`, the inhibitory constant (Ki) at rat 5-HT3 receptors is 785 nM.

In the case of `CCCCN1CCC(CNC(=O)c2cc(Cl)cn3ccnc23)CC1` [compound B], in data set [1], the “5HT4 receptor agonistic activity” value was “inactive” and the “cAMP 5HT4 function, verdict in words” value is “inactive”. Also, the “cAMP 5HT4 function, % @1000” value in data set [1] (@1000 [nM], normalized to 1000 nM serotonin) came out at 0%. For the same compound, the inhibition constant Ki on Human 5-HT4(d) was 1.1 nM. On rat 5-HT3 receptors, the inhibition constant (Ki) came to 4300 nM.
